Test results from the NIST ThermoML archive (doi:10.1021/je0603325).

Experiment: molar heat capacity at constant pressure; xn = mol fraction of the nth substance listed
Details: 101 kPa, Liquid, Small sample (50 mg) DSC

BrCCBr [1,2-dibromoethane] + CCCCCCC
molar heat capacity at constant pressure [J/K/mol]
Details | x1 = 0.1016 | x1 = 0.2016 | x1 = 0.2989 | x1 = 0.3977 | x1 = 0.4996 | x1 = 0.5991 | x1 = 0.6928 | x1 = 0.8022 | x1 = 0.9003 | x1 = 1
293.15 K | 213.58 | 204.39 | 196.15 | 187.73 | 179.31 | 170.59 | 162.47 | 153.18 | 144.9 | 136.87
294.15 K | 213.9 | 204.73 | 196.48 | 188.03 | 179.43 | 170.8 | 162.6 | 153.26 | 144.94 | 136.9
295.15 K | 214.26 | 204.92 | 196.66 | 188.2 | 179.65 | 170.96 | 162.81 | 153.4 | 145.07 | 136.95
296.15 K | 214.59 | 205.3 | 196.95 | 188.51 | 179.89 | 171.13 | 162.9 | 153.53 | 145.16 | 136.99
297.15 K | 214.9 | 205.51 | 197.29 | 188.66 | 180.09 | 171.23 | 163.05 | 153.63 | 145.24 | 137.02
298.15 K | 215.25 | 205.83 | 197.53 | 188.94 | 180.26 | 171.4 | 163.18 | 153.72 | 145.27 | 137.04
299.15 K | 215.55 | 206.18 | 197.72 | 189.11 | 180.39 | 171.55 | 163.24 | 153.84 | 145.33 | 137.09
300.15 K | 215.9 | 206.45 | 198 | 189.43 | 180.66 | 171.77 | 163.47 | 153.91 | 145.4 | 137.11
301.15 K | 216.32 | 206.71 | 198.31 | 189.64 | 180.79 | 171.9 | 163.5 | 153.98 | 145.47 | 137.15
302.15 K | 216.6 | 207.03 | 198.6 | 189.82 | 181.03 | 172.01 | 163.71 | 154.13 | 145.6 | 137.2
303.15 K | 216.95 | 207.33 | 198.77 | 190.01 | 181.17 | – | – | – | – | –
